Test results reported in patent US11191773B2, “Methods of treatment for bacterial infections” (President and Fellows of Harvard College, priority 2017, dated 2021).
In brackets after ≈: the same amount, converted by molar mass.

Legend:
ΔtolC = assay: Minimum inhibitory concentration assay; type: cell-based, E. coli
Method: (§1) We wondered whether it would be possible to separate novobiocin's ability to suppress the IptFG(ch) defects in vivo from its activity against DNA gyrase, its presumed primary target. […] Minimum inhibitory concentrations were measured after a 15-hr incubation period at 37° C.
(§2) Overnight cultures were prepared by transferring 5 mL of sterile LB Miller media to culture tubes and inoculating with the corresponding organism. The tubes were allowed to shake at 220 rpm, 37° C. overnight. 15 μL of overnight culture was diluted in 15 mL of LB Miller in a Falcon tube and was vortexed to mix. In a 96-well plate, 100 μL of diluted culture was added to each well. To column #1, an additional 100 μL of diluted culture and test compound was added (93.7 μL culture+6.35 μL 10 mg/mL novobiocin) or (94.2 μL culture+5.87 μL 10 mg/mL 1-adamantyl-novobiocin) such that the highest concentration tested was 500 μM. Transferred 100 μL from column #1 into column #2, etc, and mixed each time thoroughly. Repeated serial dilution until column #11. Incubated the plate at 37° C. overnight (˜16 h) and read the turbidity (OD600) using a Spectramax 384 plus plate reader (Molecular Devices).

wild type = assay: Minimum inhibitory concentration assay; type: cell-based, E. coli; conditions: Escherichia coli, 15 h, read-out: Minimum inhibitory concentration
Method: as §1, §2

lptB1 = assay: Minimum inhibitory concentration assay; type: cell-based, E. coli
Method: as §1, §2

wild type and IptB1 = assay: Plating assay (FIG. 14); type: cell-based, E. coli
Method: (§3) Efficiency of plating assays were performed on indicated media using the method described in Butler et al., J. Bacteriol. 2013, 195, 4639-4649.

IptFG(ch) mutant = assay: Rescue of growth of coupling helix mutant (plating and disk assays); type: cell-based, E. coli
Method: FIG. 8B is a series of pictures of bacterial overnight cultures grown in minimal medium. The cultures were serially diluted ten-fold and spotted onto LB agar plates with and without compounds.
FIG. 15 is a picture of bacterial lawns grown on plates in the presence of disks containing antibiotics. […] Strains were grown overnight in minimal media and then plated on LB plates. Each disk contained 5 μg compound.
The coupling helices in LptFG each contain a strictly-conserved glutamate, and changing both glutamates to alanine (IptFG(ch)) causes a lethal loss of function (FIG. 8B, LB panel). […] Because novobiocin also contacts R91 (FIG. 7C), we speculated that it might rescue growth of IptFG(ch) by masking the charge. […] We conclude that novobiocin suppresses Lpt defects in vivo by interacting with LptB at R91; therefore, novobiocin interacts with LptB in cells in a similar manner to that observed in the crystal structure.
Disk diffusion assays were performed as described in Sherman et al., Proc. Natl. Acad. Sci. USA 2014, 111, 4982-4987. Premade Sensi-Disc (BD-Beckton, Dickinson and Company) were used for bacitracin 10IU, erythromycin 15 μg, novobiocin 30 μg, and rifampin 5 μg.
as §3

[1] = biological target: T1, LptB2LptFG(ch)C complexes (Escherichia coli, UniProt P0A9V1); assay: LPS-release assay, right-side-out vesicles to LptA*; type: biochemical, E. coli; conditions: 30° C. (FIG. 9C)
T1 construct: made in house; host or cells: right-side-out membrane vesicles from E. coli BL-21(λDE3) overexpressing the complex
Method: (§4) FIG. 9A is a schematic drawing showing the assay to monitor LPS release from right-side-out vesicles to LptA* (LptA(I36pBPA)). Vesicles containing overexpressed wild-type or mutant LptB2FGC complexes were incubated with LptA* and ATP at 30° C. to initiate LPS extraction and transport from the vesicles to LptA*. Samples were taken at different time points and UV-irradiated to crosslink LPS to LptA*, and accumulation of LPS-LptA* adducts was detected using LPS immunoblots.
(§5) The assay detects via immunoblot LPS that becomes crosslinked to LptA* in the presence of UV light. […] By comparison, vesicles containing LptB2LptFG(ch)C complexes released less LPS over time (FIG. 9B, lanes 5-8). These experiments provide direct evidence that the amino acid changes in LptFG(ch), which were known to affect complex formation with LptB, impair LPS release. […] These compounds also increase LPS release from vesicles containing wild-type LptB2FGC complexes or LptB(R91 S)2FGC complexes (FIG. 17).
The in vitro LPS-transport experiments in FIGS. 9B, 9C, and 17 were set-up as described in (Okuda et al. Science 2012, 338, 1214-1217) with some modifications. […]
(§6) Immunoblotting was used to assess LptA*-LPS levels in each sample. […] LptA levels were assessed similarly, using rabbit anti-LptA antiserum followed by donkey anti-rabbit horseradish peroxidase conjugate (GE Amersham). […]

wild-type E. coli = assay: Checkerboard microdilution assay between PMB and clorobiocin / novobiocin (FIG. 9F); type: cell-based; conditions: 37° C. for 24 h
[2] = biological target: T2, wild-type LptB2FGC complexes (Escherichia coli, UniProt P0A9V1); assay: LPS-release assay, right-side-out vesicles to LptA*; type: biochemical, E. coli; conditions: overexpressed LptB2FGC vesicles, 30° C. for 1 hour (FIG. 9D, 9E)
T2 construct: made in house; host or cells: right-side-out membrane vesicles from E. coli BL-21(λDE3) overexpressing the complex
Method: as §4
FIG. 9D is a picture of an immunoblot showing that novobiocin and derivatives with impaired gyrase activities stimulate LPS transport in E. coli in vitro. […] Samples were UV irradiated at 365 nm for 5 minutes and then quenched with 2X SDS/5% β-mercaptoethanol. Samples were immunoblotted.
as §5
Samples were UV irradiated at 365 nm for 5 minutes and then quenched with 2X SDS/5% β-mercaptoethanol. Samples were immunoblotted.
The in vitro LPS-transport experiments in FIGS. 9B, 9C, and 17 were set-up as described in (Okuda et al. Science 2012, 338, 1214-1217) with some modifications. RSO-vesicles (50 μg total protein) were diluted into 100 μL reaction buffer (10% v/v glycerol, 20 mM Tris (pH 8.0), 150 mM NaCl, 5 mM sodium-ATP, 5 mM MgCl2), and incubated on ice with novobiocin, 1-adamantyl-novobiocin, or no compound for 15 minutes (50× compound stocks in water were used for each concentration). […]
as §6

[3] = Escherichia coli, 15 h, read-out: Minimum inhibitory concentration

T2 sequence (P0AF98 whole entry): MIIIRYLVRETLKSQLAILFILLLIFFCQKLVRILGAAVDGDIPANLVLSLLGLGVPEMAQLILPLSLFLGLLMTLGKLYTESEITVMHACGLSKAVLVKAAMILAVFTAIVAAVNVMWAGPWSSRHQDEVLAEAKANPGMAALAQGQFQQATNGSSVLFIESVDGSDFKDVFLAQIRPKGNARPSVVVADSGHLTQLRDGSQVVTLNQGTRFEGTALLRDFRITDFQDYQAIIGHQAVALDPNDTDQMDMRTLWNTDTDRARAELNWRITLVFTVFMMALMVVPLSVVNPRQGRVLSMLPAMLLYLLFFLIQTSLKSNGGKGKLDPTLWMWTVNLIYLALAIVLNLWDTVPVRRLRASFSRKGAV
T2 sequence (P0ADV9 whole entry, further chain): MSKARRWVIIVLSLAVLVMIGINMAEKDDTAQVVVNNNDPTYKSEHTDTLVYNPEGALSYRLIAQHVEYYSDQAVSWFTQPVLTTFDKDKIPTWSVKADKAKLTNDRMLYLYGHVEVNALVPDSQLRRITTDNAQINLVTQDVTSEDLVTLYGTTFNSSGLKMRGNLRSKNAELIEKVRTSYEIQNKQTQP
T2 sequence (P0ADC6 whole entry, further chain): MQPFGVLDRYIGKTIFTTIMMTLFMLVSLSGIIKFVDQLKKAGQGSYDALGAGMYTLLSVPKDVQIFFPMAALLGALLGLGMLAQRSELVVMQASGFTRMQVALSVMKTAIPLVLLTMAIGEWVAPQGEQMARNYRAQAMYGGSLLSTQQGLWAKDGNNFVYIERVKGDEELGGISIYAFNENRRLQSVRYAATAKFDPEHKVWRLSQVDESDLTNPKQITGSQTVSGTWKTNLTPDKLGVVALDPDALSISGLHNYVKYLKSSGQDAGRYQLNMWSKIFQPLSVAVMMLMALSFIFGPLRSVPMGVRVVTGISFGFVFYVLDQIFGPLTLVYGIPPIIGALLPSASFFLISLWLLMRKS
T2 sequence (P0A9V1 2-241): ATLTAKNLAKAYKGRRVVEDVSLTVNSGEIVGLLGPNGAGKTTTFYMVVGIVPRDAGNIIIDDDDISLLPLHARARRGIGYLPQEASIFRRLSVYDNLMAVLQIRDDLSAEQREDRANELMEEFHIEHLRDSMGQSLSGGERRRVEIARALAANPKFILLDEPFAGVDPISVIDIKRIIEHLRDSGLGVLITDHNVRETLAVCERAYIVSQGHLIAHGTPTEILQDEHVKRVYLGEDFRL
T1 sequence (P0AF98 whole entry E84A): as the sequence (P0AF98 whole entry) above, with E84A counted along it
T1 sequence (P0ADC6 whole entry E88A, further chain): as the sequence (P0ADC6 whole entry, further chain) above, with E88A counted along it
T1 sequence (P0A9V1 2-241): as the sequence (P0A9V1 2-241) above
T1 sequence (P0ADV9 whole entry, further chain): as the sequence (P0ADV9 whole entry, further chain) above

SMILES: COC1C(OC(N)=O)C(O)[C@H](Oc2ccc3c(O)c(NC(=O)C45CC6CC(CC(C6)C4)C5)c(=O)oc3c2C)OC1(C)C (stereo partly drawn) [Novobiocin-adamantyl, (3R,4S,5R,6R)-6-((3-((3R,5S)-adamantane-1-carboxamido)-4-hydroxy-8-methyl-2-oxo-2H-chromen-7-yl)oxy)-5-hydroxy-3-methoxy-2,2-dimethyltetrahydro-2H-pyran-4-yl carbamate]
- MIC (ΔtolC; [3]): 125 to 250 µM (≈ 73.3 to 147 µg/mL)
- less potent in vivo compared to novobiocin (ΔtolC; efflux pump-deficient ΔtoIC strain): ~100 ×
- MIC (wild type): > 500 µM
- MIC (lptB1; [3]): 125 µM (≈ 73.3 µg/mL)
- less potent in vivo compared to novobiocin (lptB1; leaky IptB1 strain): ~100 ×
- potency compared to novobiocin (wild type and IptB1): less potent than novobiocin
- suppression of lethality of IptFG(ch) (IptFG(ch) mutant; disks on LB plates, each disk 5 μg compound (FIG. 15)): suppressed the lethality of IptFG(ch)
- rescue of growth of IptFG(ch) (IptFG(ch) mutant; serial dilutions spotted onto LB agar plates with compound (FIG. 8B)): completely suppressed the lethality of IptFG(ch)
- LPS release from vesicles to LptA* [1]: stimulate LPS release from the LptB2LptFG(ch)C vesicles in a concentration dependent manner

SMILES: CO[C@@H]1[C@@H](OC(=O)c2ccc(C)[nH]2)[C@@H](O)[C@H](Oc2ccc3c(O)c(NC(=O)c4ccc(O)c(CC=C(C)C)c4)c(=O)oc3c2Cl)OC1(C)C [clorobiocin]
- synergy with PMB (wild-type E. coli): more potent synergy with PMB than novobiocin
- LPS transport in vitro [2]: highly stimulates LPS transport in vitro
